Where a name gives a salt, the structure may show the parent alone.
Tests used:
Settings in all cases: exposure time 48 h
[1] = system: Caenorhabditis elegans N2; test: AC50 for larval growth inhibition (Hill fit); higher = less potent
In short: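 Synchronised C. elegans N2 L1 larvae (50 per well, 96-well plates) were grown for 48 h at 20°C in K-medium with killed OP50, 1% DMSO and 0.5–200 µM chemical. The COPAS Biosort measured each worm's size as extinction, which was log-transformed and averaged per well. AC50 came from a constrained Hill fit by weighted genetic-algorithm regression on wells with at least 10 worms. Out-of-range values are censored.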

[2] = system: Caenorhabditis elegans N2; test: mean nematode size ln(EXT) after 48 h, plate-adjusted (DMSO control set to 6) (ln(EXT), control-adjusted); higher = larger nematodes / less growth inhibition
In short: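 Each treatment used 4–6 wells of 50 synchronised C. elegans N2 L1 larvae, kept for 48 h at 20°C in K-medium with killed OP50, 1% DMSO and 0.5–200 µM chemical. Debris was excluded by a growth model after the Biosort measured per-worm extinction. Mean size per well came from natural-logged values and was plate-adjusted. That adjustment subtracted the vehicle control mean and then added 6.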

[3] = system: Caenorhabditis elegans N2; test: lowest effective concentration for larval growth inhibition (size below effect threshold); higher = less potent
In short: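 C. elegans N2 L1 larvae (50 per 96-well) were grown 48 h at 20°C in K-medium with killed bacteria, 1% DMSO and 0.5, 1, 5, 10, 50, 100 or 200 µM chemical. The Biosort measured per-worm extinction as size, and these were log-transformed into well means. The lowest effective concentration is the first dose where the plate-adjusted mean size drops under the 5.665 threshold and stays under it at higher doses.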

SMILES | AC50 for larval growth inhibition [1] [µM] | mean nematode size ln(EXT) (ln) ([2]; 0.5 µM) | mean nematode size ln(EXT) (ln) ([2]; 1 µM) | mean nematode size ln(EXT) (ln) ([2]; 5 µM) | mean nematode size ln(EXT) (ln) ([2]; 10 µM) | mean nematode size ln(EXT) (ln) ([2]; 50 µM) | mean nematode size ln(EXT) (ln) ([2]; 100 µM) | mean nematode size ln(EXT) (ln) ([2]; 200 µM) | lowest effective concentration [3] [µM]
CCCCC(CC)COC(=O)CC(C(=O)OCC(CC)CCCC)S(=O)(=O)O (configuration not stated) [Docusate sodium] | 57.1 | 5.96 | 5.98 | 5.93 | 5.93 | 4.65 | 4.05 | 3.28 | 50
CCCCCCCCCCCC[N+](C)(C)C [Dodecyl trimethyl ammonium chloride] | 199 | 5.76 | 6.02 | 5.88 | 5.9 | 5.76 | 5.65 | 4.53 | 100
CCCCCCCCCCCCc1ccccc1S(=O)(=O)O [Dodecylbenzenesulfonic acid, Na salt] | 50.2 | 5.73 | 5.72 | 5.8 | 5.99 | 4.92 | 3.85 | 3.24 | 50
CN1CCN(c2ccccc2/C=C2\SCCN(c3ccc(Cl)c(Cl)c3)C2=O)CC1 [Elzasonan] | 62.7 | 5.89 | 5.8 | 5.84 | 5.58 | 4.76 | 4.27 | 3.67 | 10
CC[C@H](C)C1O[C@]2(C=C[C@@H]1C)C[C@@H]1C[C@@H](C/C=C(\C)[C@@H](O[C@H]3C[C@H](OC)[C@@H](O[C@H]4C[C@H](OC)[C@H](NC)[C@H](C)O4)[C@H](C)O3)[C@@H](C)/C=C/C=C3\CO[C@@H]4[C@H](O)C(C)=C[C@@H](C(=O)O1)[C@]34O)O2 (some centres not stated) [Emamectin benzoate] | < 0.5 | 3.52 | 3.7 | 3.74 | 3.6 | 3.65 | 3.54 | 4.24 | ≤ 0.5
O=S1OCC2C(CO1)C1(Cl)C(Cl)=C(Cl)C2(Cl)C1(Cl)Cl (configuration not stated) [Endosulfan] | 6.12 | 5.74 | 5.72 | 5.08 | 3.84 | 3.51 | 3.24 | 3.47 | 5
O=C(O)[C@@H]1[C@H](C(=O)O)[C@H]2CC[C@@H]1O2 [Endothal] | > 200 | 5.86 | 5.85 | 5.91 | 5.82 | 5.56 | 5.71 | 5.15 | 200
ClC1=C(Cl)C2(Cl)C3C4CC(C5OC45)C3C1(Cl)C2(Cl)Cl (configuration not stated) [Endrin] | 8.83 | 5.93 | 5.85 | 4.99 | 4.95 | 3.81 | 3.9 | 3.75 | 5
CC(C)[C@H](C(=O)O[C@H](C#N)c1cccc(Oc2ccccc2)c1)c1ccc(Cl)cc1 [Esfenvalerate] | > 200 | 5.76 | 5.83 | 5.9 | 5.73 | 5.74 | 5.76 | 5.64 | 200
C=C(C)CN(CC)c1c([N+](=O)[O-])cc(C(F)(F)F)cc1[N+](=O)[O-] [Ethalfluralin] | 141 | 5.89 | 6.05 | 5.94 | 5.8 | 6.1 | 5.98 | 4.85 | 200
CCOP(=S)(OCC)SCSP(=S)(OCC)OCC [Ethion] | 99.2 | 5.78 | 5.62 | 5.28 | 5.04 | 4.93 | 4.85 | 4.06 | 1
CCOC1Oc2ccc(OS(C)(=O)=O)cc2C1(C)C (configuration not stated) [Ethofumesate] | 198 | 6.01 | 6.03 | 6.14 | 6.03 | 6.14 | 6.11 | 5.44 | 200
CCCSP(=O)(OCC)SCCC [Ethoprop] | 76.3 | 5.83 | 5.78 | 5.68 | 5.55 | 4.81 | 4.35 | 4.19 | 10
CCOc1ccc2c(c1)C(C)=CC(C)(C)N2 [Ethoxyquin] | > 200 | 5.78 | 5.74 | 5.77 | 5.78 | 5.71 | 5.61 | 5.17 | 100
OCCO [Ethylene glycol] | > 200 | 5.79 | 5.77 | 5.77 | 5.78 | 5.72 | 5.63 | 5.65 | 100
CCOc1ccc(C(C)(C)COCc2cccc(Oc3ccccc3)c2)cc1 [Etofenprox] | 52.2 | 5.87 | 5.88 | 5.91 | 5.71 | 5.81 | 5.39 | 5.47 | 100
CCOc1cc(C(C)(C)C)ccc1C1COC(c2c(F)cccc2F)=N1 (configuration not stated) [Etoxazole] | 2.3 | 5.74 | 5.16 | 4.48 | 4.32 | 4.37 | 3.91 | 3.44 | 1
Cc1oc(-c2ccccc2)nc1CCOc1ccc(C[C@H](Nc2ccccc2C(=O)c2ccccc2)C(=O)O)cc1 [Farglitazar] | 39 | 5.87 | 5.89 | 5.92 | 6.19 | 4.95 | 4.73 | 4.48 | 50
Cc1cc(N=Nc2ccccc2C)ccc1N [Fast Garnet GBC base] | 14.9 | 5.83 | 5.71 | 5.55 | 5.5 | 3.45 | 3.57 | 3.77 | 5
CSC1=N[C@@](C)(c2ccccc2)C(=O)N1Nc1ccccc1 [Fenamidone] | 105 | 5.9 | 5.9 | 5.86 | 5.96 | 6.02 | 5.83 | 5.41 | 200
CN(C)c1ccc(N=NS(=O)(=O)O)cc1 [Fenaminosulf] | 54.8 | 5.95 | 5.88 | 5.79 | 5.86 | 4.72 | 3.9 | 3.5 | 50
CCOP(=O)(NC(C)C)Oc1ccc(SC)c(C)c1 (configuration not stated) [Fenamiphos] | 90.9 | 5.54 | 5.56 | 5.32 | 5.31 | 4.93 | 4.49 | 4.15 | ≤ 0.5

SMILES | AC50 for larval growth inhibition [1] [µM] | mean nematode size ln(EXT) (ln) ([2]; 0.5 µM) | mean nematode size ln(EXT) (ln) ([2]; 1 µM) | mean nematode size ln(EXT) (ln) ([2]; 5 µM) | mean nematode size ln(EXT) (ln) ([2]; 10 µM) | mean nematode size ln(EXT) (ln) ([2]; 50 µM) | mean nematode size ln(EXT) (ln) ([2]; 100 µM) | mean nematode size ln(EXT) (ln) ([2]; 200 µM) | lowest effective concentration [3] [µM]
OC(c1ccc(Cl)cc1)(c1cncnc1)c1ccccc1Cl (configuration not stated) [Fenarimol] | 59.8 | 6.14 | 6.17 | 6.07 | 5.92 | 5.21 | 3.58 | 3.32 | 50
N#CC(CCc1ccc(Cl)cc1)(Cn1cncn1)c1ccccc1 (configuration not stated) [Fenbuconazole] | 177 | 6.18 | 6.1 | 6.07 | 5.65 | 5.13 | 5.27 | 4.39 | 10
CC1(C(=O)Nc2ccc(O)c(Cl)c2Cl)CCCCC1 [Fenhexamid] | 112 | 5.86 | 5.87 | 5.88 | 5.96 | 6 | 5.86 | 4.71 | 200
COP(=S)(OC)Oc1ccc([N+](=O)[O-])c(C)c1 [Fenitrothion] | 37 | 5.97 | 5.72 | 5.6 | 5.46 | 4.49 | 3.96 | 4.09 | 5
CC(C)OC(=O)C(C)(C)Oc1ccc(C(=O)c2ccc(Cl)cc2)cc1 [Fenofibrate] | 121 | 5.83 | 5.81 | 5.75 | 5.61 | 5.19 | 4.62 | 4.22 | 10
CCOC(=O)C(C)Oc1ccc(Oc2nc3ccc(Cl)cc3o2)cc1 (configuration not stated) [Fenoxaprop-ethyl] | 76.3 | 5.83 | 6.04 | 6 | 5.97 | 5.68 | 5.4 | 5.18 | 100
CCOC(=O)NCCOc1ccc(Oc2ccccc2)cc1 [Fenoxycarb] | 37.2 | 5.96 | 5.87 | 5.9 | 5.59 | 4.47 | 4.1 | 3.72 | 10
CC1(C)C(C(=O)OC(C#N)c2cccc(Oc3ccccc3)c2)C1(C)C (configuration not stated) [Fenpropathrin] | > 200 | 5.91 | 5.81 | 5.77 | 5.93 | 5.22 | 5.22 | 4.68 | 50
COP(=S)(OC)Oc1ccc(SC)c(C)c1 [Fenthion] | 34.4 | 5.69 | 5.64 | 5.43 | 5.36 | 5.09 | 5.11 | 4.92 | 1
N#Cc1nn(-c2c(Cl)cc(C(F)(F)F)cc2Cl)c(N)c1[S+]([O-])C(F)(F)F (configuration not stated) [Fipronil] | > 200 | 5.96 | 5.84 | 5.92 | 5.65 | 5.59 | 5.52 | 5.17 | 10
CCCCOC(=O)[C@@H](C)Oc1ccc(Oc2ccc(C(F)(F)F)cn2)cc1 [Fluazifop-P-butyl] | 98.7 | 6.18 | 6.51 | 6.31 | 6.37 | 6.22 | 5.52 | 4.99 | 100
CCCCOC(=O)C(C)Oc1ccc(Oc2ccc(C(F)(F)F)cn2)cc1 (configuration not stated) [Fluazifop-butyl] | 191 | 6.21 | 6.17 | 6.11 | 6.18 | 5.87 | 5.5 | 4.66 | 100
O=[N+]([O-])c1cc(C(F)(F)F)c(Cl)c([N+](=O)[O-])c1Nc1ncc(C(F)(F)F)cc1Cl [Fluazinam] | 31.6 | 6.05 | 6.17 | 5.81 | 6.15 | 3.61 | 3.85 | 3.23 | 50
OC(Cn1cncn1)(Cn1cncn1)c1ccc(F)cc1F [Fluconazole] | > 200 | 6.08 | 6.04 | 6.06 | 6.09 | 6.01 | 5.99 | 5.56 | 200
N#Cc1c[nH]cc1-c1cccc2c1OC(F)(F)O2 [Fludioxonil] | 101 | 6.15 | 6.03 | 6.08 | 6.01 | 6.06 | 5.27 | 4.42 | 100
CC(C)N(C(=O)COc1nnc(C(F)(F)F)s1)c1ccc(F)cc1 [Flufenacet] | 21.5 | 5.91 | 5.94 | 6.03 | 6.05 | 5.45 | 6.04 | 5.52 | 200
CCOC(=O)COc1cc(-n2ncc(C(F)(F)F)c(C)c2=O)c(F)cc1Cl [Flufenpyr-ethyl] | > 200 | 5.85 | 5.76 | 5.8 | 5.87 | 5.88 | 5.91 | 5.57 | 200
CCN(Cc1c(F)cccc1Cl)c1c([N+](=O)[O-])cc(C(F)(F)F)cc1[N+](=O)[O-] [Flumetralin] | 180 | 6.16 | 6.01 | 6 | 6.02 | 6.1 | 6.11 | 3.65 | 200
CCCCCOC(=O)COc1cc(N2C(=O)C3=C(CCCC3)C2=O)c(F)cc1Cl [Flumiclorac-pentyl] | > 200 | 5.98 | 6.04 | 6.02 | 5.91 | 5.69 | 5.6 | 4.54 | 100
c1ccc2c(c1)-c1cccc3cccc-2c13 [Fluoranthene] | 9.33 | 5.79 | 5.87 | 5.65 | 5.05 | 4.05 | 3.8 | 4.82 | 5
CO/N=C(/C1=NOCCO1)c1ccccc1Oc1ncnc(Oc2ccccc2Cl)c1F [Fluoxastrobin] | > 200 | 5.86 | 5.94 | 6.05 | 6.07 | 5.65 | 5.6 | 5.12 | 50

From the supplement of paper PMC4858399
